{"source": "paper PMC10385868", "about": "(Viruses, 2023)", "key": {"[1]": {"tested_on": "VEEV-infected HeLa cells", "test": "microbe, parasite or virus in culture", "type": "cell-based, Venezuelan equine encephalitis virus"}, "[2]": {"tested_on": "cell viability"}, "[3]": {"tested_on": "VEEV-Trd", "test": "microbe, parasite or virus in culture", "type": "cell-based, Venezuelan equine encephalitis virus"}, "[4]": {"tested_on": "VEEV Trinidad", "type": "cell-based, Venezuelan equine encephalitis virus"}, "[5]": {"target": "T1, VEEV nsP2 protease (Venezuelan equine encephalitis virus, UniProt P27282)", "T1 sequence (P27282 1003-1322 limits assumed)": "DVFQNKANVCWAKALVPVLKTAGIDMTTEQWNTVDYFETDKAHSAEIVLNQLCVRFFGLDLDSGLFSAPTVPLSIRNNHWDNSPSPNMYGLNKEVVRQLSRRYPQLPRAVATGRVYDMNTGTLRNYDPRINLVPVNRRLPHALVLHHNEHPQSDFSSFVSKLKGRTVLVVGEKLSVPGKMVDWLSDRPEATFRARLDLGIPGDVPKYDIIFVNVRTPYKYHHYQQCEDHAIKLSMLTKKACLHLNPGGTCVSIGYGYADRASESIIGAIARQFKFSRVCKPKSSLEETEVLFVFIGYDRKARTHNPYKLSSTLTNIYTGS", "test": "biochemical", "type": "biochemical"}, "[6]": {"test": "in vitro", "details": "African green monkey"}, "[7]": {"test": "in vitro", "details": "human"}, "[8]": {"test": "in vitro", "details": "PAMPA"}, "[9]": {"tested_on": "CHIKV", "test": "microbe, parasite or virus in culture", "type": "cell-based", "details": "Chikungunya virus, U2OS, read-out: CHIKV EC50"}, "[10]": {"test": "in vitro"}, "[11]": {"details": "rat, microsomes"}, "[12]": {"tested_on": "WEEV", "test": "microbe, parasite or virus in culture", "type": "cell-based", "details": "Western equine encephalitis virus, HeLa, read-out: WEEV EC50"}, "[13]": {"tested_on": "VEEV-TC83", "test": "microbe, parasite or virus in culture", "type": "cell-based", "details": "Venezuelan equine encephalitis virus, HeLa, read-out: VEEV-TC83 EC50"}, "[14]": {"target": "T1, VEEV nsP2 protease", "test": "biochemical"}, "[15]": {"tested_on": "VEEV-Trinidad", "test": "microbe, parasite or virus in culture", "type": "cell-based", "details": "Venezuelan equine encephalitis virus"}, "[16]": {"test": "in vitro", "details": "SD, rat, microsomes"}, "[17]": {"tested_on": "EEEV", "test": "microbe, parasite or virus in culture", "type": "cell-based", "details": "Eastern equine encephalitis virus, A549, read-out: EEEV EC50"}, "[18]": {"tested_on": "CHIKV", "type": "cell-based, Chikungunya virus"}, "[19]": {"tested_on": "VEEV", "type": "cell-based, Venezuelan equine encephalitis virus"}, "[20]": {"target": "T1, VEEV nsP2 protease", "type": "biochemical"}, "[21]": {"test": "physchem"}, "[22]": {"tested_on": "EEEV", "type": "cell-based, eastern equine encephalitis virus"}, "[23]": {"tested_on": "WEEV", "type": "cell-based, Western equine encephalitis virus"}, "[24]": {"details": "Venezuelan equine encephalitis virus"}}, "note": "Several values for one entry are separate records, joined by “and”; a condition that tells them apart may be missing. Identical values can stand only once. Like-named read-outs stand apart in the source and are kept apart here.", "data": [{"smiles": "CCCNC(=O)[C@H]1O[C@H]1C(=O)N[C@H](C(=O)N1CCC[C@@H]1C(=O)OC)C(C)CC", "note": "(stereo partly drawn) [NCGC00163431-03]", "values": [{"measurement": "inhibition", "setting": "[1]", "result": 83, "unit": "%"}, {"measurement": "inhibition at 1.562 µM", "setting": "[1]; Venezuelan equine encephalitis virus, HeLa", "result": 82.9, "unit": "%"}, {"measurement": "concentration at which toxicity / cytotoxicity was seen", "setting": "[2]; African green monkey", "result": 100, "unit": "µM"}, {"measurement": "concentration showing inhibition in cell-based assays", "setting": "[3]", "result": "< 15", "unit": "µM"}]}, {"smiles": "CC[C@H]1CN2CCc3cc(OC)c(OC)cc3[C@@H]2C[C@@H]1C[C@H]1NCCc2cc(OC)c(OC)cc21", "note": "[emetine]", "values": [{"measurement": "antiviral activity in plaque assays", "setting": "[4]", "result": "notable antiviral activities"}]}, {"smiles": "CC(=O)NC1C(=O)N(CCN2CCOCC2)c2ccc(Br)cc21", "note": "(stereo not drawn) [MLS001215987-01]", "values": [{"measurement": "IC50", "setting": "[5]", "result": "14 ± 3", "unit": "µM"}, {"measurement": "EC50", "setting": "[3]; [24]", "result": "> 50", "unit": "µM"}, {"measurement": "CC50", "setting": "[6]", "result": "> 50", "unit": "µM"}]}, {"smiles": "CC(C)CCNC(=O)[C@H](CC(C)C)NC(=O)[C@H]1O[C@@H]1C(=O)NCc1cccnc1", "note": "[NCGC00488907-01]", "values": [{"measurement": "CC50", "setting": "[7]", "result": "> 50", "unit": "µM"}, {"measurement": "Papp", "setting": "[8]", "result": "< 4.3", "unit": "×10⁻⁶ cm/s"}, {"measurement": "EC50", "setting": "[9]", "result": 25.9, "unit": "µM"}, {"measurement": "CC50", "setting": "[10]; African green monkey", "result": "> 100", "unit": "µM"}, {"measurement": "CC50", "setting": "[10]; human", "result": "> 50", "unit": "µM"}, {"measurement": "Rat_SD/Microsomes t1/2", "setting": "[11]", "result": 6.4, "unit": "m"}, {"measurement": "EC50", "setting": "[12]", "result": 8.76, "unit": "µM"}, {"measurement": "EC50", "setting": "[13]", "result": 5.22, "unit": "µM"}, {"measurement": "kinact/KI", "setting": "[14]; read-out: VEEV nsP2 PROTEASE k2/Ki", "result": 86, "unit": "M⁻¹ s⁻¹"}, {"measurement": "PAMPA", "result": "<4.3", "unit": "×10⁻⁶ cm/s"}, {"measurement": "EC50", "setting": "[15]; A549", "result": 6, "unit": "µM"}, {"measurement": "EC50", "setting": "[15]; A549, read-out: VEEV-Trinidad EC50", "result": 5.97, "unit": "µM"}, {"measurement": "half-life", "setting": "[16]", "result": 6.4, "unit": "min"}, {"measurement": "EC50", "setting": "[17]", "result": "< 50", "unit": "µM"}]}, {"smiles": "COc1ccc(C2CC(c3cccs3)=NN2C(=O)CCl)cc1OC", "note": "(stereo not drawn) [MLS001178292-01]", "values": [{"measurement": "IC50", "setting": "[5]; read-out: IC50", "result": "> 200", "unit": "µM"}, {"measurement": "CC50", "setting": "[2]", "result": "> 50", "unit": "µM"}, {"measurement": "cytotoxicity", "setting": "[2]", "result": "cytotoxic"}, {"measurement": "antiviral activity against VEEV-Trd in cell-based assays", "setting": "[3]; at 50 µM", "result": "did not demonstrate significant antiviral activity"}]}, {"smiles": "C#Cc1cc(N2CCN(C(=O)c3ccoc3)CC2)n2nc(-c3cccc(Cl)c3)cc2n1", "note": "[MLS003116111-01]", "values": [{"measurement": "antiviral activity in plaque assays", "setting": "[4]", "result": "notable antiviral activities"}]}, {"smiles": "N=c1c2c(-c3ccccc3)c(-c3ccccc3)n(Cc3ccccc3)c2ncn1C1CCC(O)CC1", "note": "(stereo not drawn) [NCGC00247785-13]", "values": [{"measurement": "antiviral activity in plaque assays", "setting": "[4]", "result": "notable antiviral activities"}]}, {"smiles": "CC(C)CCNC(=O)C(CC(C)C)NC(=O)C1OC1C(=O)O", "note": "(stereo not drawn) [NCGC00018306-02]", "values": [{"measurement": "concentration showing inhibition in cell-based assays", "setting": "[3]", "result": "< 15", "unit": "µM"}]}, {"smiles": "CCc1ccc2c(c1)C(NC(C)=O)C(=O)N2CCN1CCOCC1", "note": "(stereo not drawn) [MLS001215951-01]", "values": [{"measurement": "IC50", "setting": "[5]", "result": "18 ± 7", "unit": "µM"}, {"measurement": "EC50", "setting": "[3]; [24]", "result": "> 50", "unit": "µM"}, {"measurement": "CC50", "setting": "[6]", "result": "> 50", "unit": "µM"}]}, {"smiles": "Cc1cc(C(=O)CCl)c(C)n1-c1cccc([N+](=O)[O-])c1", "note": "[MLS000877947-01]", "values": [{"measurement": "IC50", "setting": "[5]; read-out: IC50", "result": "> 200", "unit": "µM"}, {"measurement": "CC50", "setting": "[2]", "result": "> 50", "unit": "µM"}, {"measurement": "EC50", "setting": "[3]; read-out: EC50", "result": "> 50", "unit": "µM"}]}, {"smiles": "O=c1cc(N2CCOCC2)oc2c1ccc1ccccc12", "note": "[NCGC00165840-02]", "values": [{"measurement": "Rat_SD/Microsomes t1/2", "setting": "[11]", "result": ">30", "unit": "m"}, {"measurement": "Permeability (PAMPA_Pion_Lipid)", "setting": "PAMPA", "result": 294.2, "unit": "×10⁻⁶ cm/s"}]}, {"smiles": "CCOC(=O)[C@H]1O[C@@H]1C(=O)N[C@@H](CC(C)C)C(=O)NCCC(C)C", "note": "[E64d]", "values": [{"measurement": "Papp", "setting": "[8]", "result": 89, "unit": "×10⁻⁶ cm/s"}, {"measurement": "Rat_SD/Microsomes t1/2", "setting": "[11]", "result": 1.5, "unit": "m"}, {"measurement": "effect on titers", "setting": "[18]", "result": "minor reductions"}, {"measurement": "effect on titers", "setting": "[19]", "result": "minor reductions"}, {"measurement": "inhibition in discontinuous assays (SDS-PAGE gels)", "setting": "[20]", "result": "complete inhibition"}, {"measurement": "Ki", "setting": "[14]; Ki", "result": "40 ± 30", "unit": "µM"}, {"measurement": "k2", "setting": "[14]; pH 7", "result": "0.10 ± 0.06", "unit": "min⁻¹"}, {"measurement": "kinact/KI", "setting": "[14]; pH 7, read-out: k2/Ki", "result": 33.3, "unit": "M⁻¹ s⁻¹"}, {"measurement": "solubility", "setting": "[21]", "result": 24, "unit": "µg/mL"}, {"measurement": "efficacy in cell-based assays", "setting": "[3]", "result": "ineffective"}, {"measurement": "Average titer", "setting": "[22]", "result": "2.28 × 10^8 and 2.27 × 10^8"}, {"measurement": "effect on titers", "setting": "[22]", "result": "no effect"}, {"measurement": "Average titer", "setting": "[23]", "result": "2.13 × 10^6 and 2.16 × 10^6"}, {"measurement": "effect on titers", "setting": "[23]", "result": "no effect"}]}, {"smiles": "O=C(/C=C/c1cccs1)Nc1scc(-c2ccccc2)c1C(=O)O", "note": "[MLS000773385-01]", "values": [{"measurement": "IC50", "setting": "[5]", "result": "15 ± 2", "unit": "µM"}, {"measurement": "EC50", "setting": "[3]; [24]", "result": "> 50", "unit": "µM"}, {"measurement": "CC50", "setting": "[6]", "result": "> 50", "unit": "µM"}]}, {"smiles": "O=C(CSc1ccccn1)Nc1nonc1[N+](=O)[O-]", "note": "[MLS001030320-01]", "values": [{"measurement": "IC50", "setting": "[5]; read-out: IC50", "result": "> 100", "unit": "µM"}, {"measurement": "CC50", "setting": "[2]", "result": "> 50", "unit": "µM"}, {"measurement": "EC50", "setting": "[3]; read-out: EC50", "result": "> 50", "unit": "µM"}]}, {"smiles": "Cc1ccc(C2=NN(C(=O)CCl)C(c3ccco3)C2)o1", "note": "(stereo not drawn) [MLS001179882-01]", "values": [{"measurement": "IC50", "setting": "[5]; read-out: IC50", "result": "> 200", "unit": "µM"}, {"measurement": "CC50", "setting": "[2]", "result": "> 50", "unit": "µM"}, {"measurement": "EC50", "setting": "[3]; read-out: EC50", "result": "> 50", "unit": "µM"}]}]}
